Where a SMILES comes first, the peptide text is derived from it.
Assays:
[1] = system: HeLa cells; experiment: CellTiter-Glo2.0 cell viability assay; assay type: cell-based; details: for viable cells (lowest): concentrations of 16.10 µM or higher
Procedure: Supplementary Figure 5. Characterisation of cytotoxicity effects of CP-eIFTerminators and […]
A. Measurement of cell viability (%) in HeLa cells following 3-hr treatments with cell-penetrating peptides. A Cell Titer-Glo2.0 cell viability assay was performed to assess viability of HeLa cells following a 3-hr treatment with a dilution series of each CP-eIFTerminator or parental warhead (CP-CBLock or CP-eIF4G1-D5S). The concentration range of each peptide in the 13-point serial dilution was 0.16-24.4 μM.
Data on CP-eIFTerminator2 are not shown as it was insoluble (n = 3, mean ± Standard error of the mean (SEM)).
B. Measurement of cell viability (%) in HeLa cells following 8 hr treatments with cell- […]
viability of HeLa cells following an 8-hr treatment with a dilution series of each CP-eIFTerminator, CP-CBLock, or CP-eIF4G1-D5S. The concentration range of each peptide in the 13-point serial dilution was 0.16-24.4 μM. CP-eIFTerminator2 was not
(1 picture or pasted object on this page, not shown here)
MgCl2. After the liquid was removed, 30 μL 2x LDS mix (prepared as described above) was used to elute the IP samples. The samples were boiled at 92°C for 10 min and 28 μL were loaded on a 4-12% Bis-Tris SDS-PAGE gel, along with the whole cell lysates that were prepared in 75 μL RIPA buffer. The gel was subsequently transferred and western blotted.
Antibodies included anti-actin, anti-HA, anti-K48 antibodies as primaries, as well as IRDye800CW goat anti-mouse IgG secondary antibody and IRDye680LT goat anti-rabbit […]
CellTiter-Glo2.0 Cell Viability Assay
Cells were seeded onto a Greiner 384 small volume plate using a Multidrop TM Combi Reagent Dispenser (Thermo Scientific). The seeding density was 2000 cells/well in a volume of 15 μL per well. After incubating the 384-well plate overnight at 37°C, 5% CO 2, the medium on the plate was removed using a Bluewasher (Blue Cat Bio). […] The plate was read using a PHERAstar FSX (BMG Labtech). Raw data were exported from the Pherastar as a Microsoft Excel file and analysed in Excel, and the processed data were plotted in GraphPad Prism v9.5.1. […]

[2] = target: T1, eIF4E (Homo sapiens, UniProt P06730); experiment: Western blot of endogenous eIF4E (and eIF4A, eIF4G, FITC) in HeLa cells; assay type: cell-based; details: 3 h, result in words; for eIF4E degradation, PROTAC versus individual warheads: 10 µM
T1 construct: assessed the effects on the endogenous levels of eIF4E; endogenous in cells; host or cells: HeLa
Procedure: Western blot procedures for cell-based assays
Three washes with 1 mL PBS were performed before harvesting cells with a cell lifter. The cells were frozen in liquid nitrogen and stored at -70°C. The lysis buffer comprised 50 mM Tris-HCl (pH 7.5), 150 mM NaCl, 1% Triton-X, 1% SDS, 1 μL benzonase and one tablet of the Pierce TM Protease Inhibitor Tablets, EDTA-free (ThermoFisher Sceintific) in PBS except for HA-tag and Myc-tag IP. As for HA-tag and Myc-tag IP, the lysis buffer consisted of 50 mM Tris-HCl (pH 7.5), 150 mM NaCl, 1 mM EDTA, 1% IGEPAL CA-630, 10% glycerol, 20 μM PMSF, 1 mM DTT, and a single Protease Inhibitor Tablet in PBS.
The cells were lysed in 35 μL lysis buffer at 4°C by vortexing every 10 min over a period of 90 min. Protein concentration in the cell lysate was measured by Bradford assay.
Lysates were immunoprecipitated in addition to inputs when appropriate. SDS-PAGE and immunoblotting analysis were performed subsequently. […]
CellTiter-Glo2.0 Cell Viability Assay […]
A 13-point serial dilution series of 0.163 μM –
24.4 μM of each peptide dissolved in DMSO was dispensed with the highest concentration of DMSO at less than 0.5%. Three replicates were run per condition. The assay plate was incubated for 3 hr or 8 hr at 37°C, 5% CO 2. Following this, the liquid on the assay plate was removed using the Bluewasher. […]
Comparison of CP-eIFTerminator peptides and warheads in HeLa cells
HeLa cells were seeded in 6 cm dishes at a cell density of 1.5 x10^6 per dish. After overnight incubation at 37°C, 5% CO 2, cells were treated with […] along with 10 μM of respective cell-penetrating peptides. Peptides were reconstituted in water immediately before addition to the cell culture. An equal volume of water was added as a negative control.
Cells were harvested 3 hr after peptide incubation at 37°C, 5% CO 2 for western blot analysis.
Anti-actin, anti-eIF4EA, anti-eIF4E, anti-eIF4G, and anti-FITC antibodies, as well as […]
secondary IgG in Table 3 were used for Western blot.
Time course of CP-eIFTerminator4 in HeLa cells
0.5 x 10^6 HeLa cells were seeded in 35 mm dishes. A time course experiment was initiated after overnight incubation at 37°C, 5% CO 2. For each time point (0.5, 3, 6, 12, 24 hr), cells were treated with fresh medium containing 100 ng/mL EGF along with 20 μM CP-eIFTerminator4 or water. All dishes were harvested at the same time, after varying incubations with the peptide.
Titration of CP-eIFTerminator4 in HeLa and U-2 OS cells […]
Immediately after this, 2.5 μM, 10 μM, or 50 μM CP-eIFTerminator4 was added to U-2 OS cells. 5 μM, 10 μM, or 20 μM CP-eIFTerminator4 was added in the case of HeLa cells. […]
15022) or 50 μM chloroquine (Cell Signaling Technology, Cat. No.: 14774S) and incubated for 4 hr at 37 °C, 5% CO 2. […] The cell lysates were analysed by western blot. […]

T1 sequence (P06730 whole entry): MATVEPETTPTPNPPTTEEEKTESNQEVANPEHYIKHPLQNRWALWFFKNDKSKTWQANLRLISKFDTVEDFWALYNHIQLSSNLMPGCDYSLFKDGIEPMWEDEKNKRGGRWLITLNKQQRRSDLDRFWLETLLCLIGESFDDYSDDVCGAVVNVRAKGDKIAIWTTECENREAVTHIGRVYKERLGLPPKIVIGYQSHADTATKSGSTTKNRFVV

Row | Molecule | viable cells (lowest) ([1]; 3 h post-peptide treatment) | viable cells (lowest) ([1]; 8 h post-peptide treatment) | concentration at which cytotoxicity was exhibited ([1]; CellTiter-Glo2.0, 0.16–24.4 µM, 3 h and 8 h, 100 ng/mL EGF, n = 3) | eIF4E degradation, PROTAC versus individual warheads [2] | effect on eIF4A1, eIF4E and eIF4G1 levels [2]
1 | CC[C@H](C)[C@H](NC(=O)[C@H](CCCCN)NC(=O)[C@@H](NC(=O)[C@H](CCC(N)=O)NC(=O)[C@@H](N)CCCNC(=N)N)[C@@H](C)CC)C(=O)N[C@@H](Cc1c[nH]c2ccccc12)C(=O)N[C@@H](Cc1ccccc1)C(=O)N[C@@H](CCC(N)=O)C(=O)N[C@@H](CC(N)=O)C(=O)N[C@@H](CCCNC(=N)N)C(=O)N[C@@H](CCCNC(=N)N)C(=O)N[C@@H](CCSC)C(=O)N[C@@H](CCCCN)C(=O)N[C@@H](Cc1c[nH]c2ccccc12)C(=O)N[C@@H](CCCCN)C(=O)N[C@@H](CCCCN)C(=O)NCC(=O)NCC(=O)N[C@@H](CO)C(=O)N[C@@H](CCCCN)C(=O)N[C@@H](CCCCN)C(=O)N[C@@H](CCCNC(=N)N)C(=O)N[C@@H](Cc1ccc(O)cc1)C(=O)N[C@@H](CO)C(=O)N[C@@H](CCCNC(=N)N)C(=O)N[C@@H](CCC(=O)O)C(=O)N[C@@H](Cc1ccccc1)C(=O)N[C@@H](CC(C)C)C(=O)N[C@@H](CC(C)C)C(=O)NCC(=O)N[C@@H](Cc1ccccc1)C(N)=O [CP-eIF4G1-D5S] (H-RQIKIWFQNRRMKWKKGGSKKRYSREFLLGF-NH2; N-terminus assumed) | ≥ 35% | ≥ 25% | ≥ 16.10 µM | do not trigger eIF4E degradation | minimal effects
2 | N'-RQIKIWFQNRRMKWKKGGSMTVEEMDSWIKSWDQR-C' [CP-CBLock] | – | – | – | do not trigger eIF4E degradation | minimal effects

Reference: publication PMC12774438, “CBL ubiquitin ligase targets translation as a degrader E3” (Chemical Science, 2025)
